One assay relates to Candida albicans. The following applies: both in vitro and in vivo; cited from earlier work.
For assay [1] the following is noted: alone or in combination with picibanil; cited from earlier work.
The next assay concerns IgE-like antibodies. The settings on record: in vivo; cited from earlier work.
The test system of assay [2] is experimental allergic encephalomyelitis model. The settings on record: a model for multiple sclerosis; cited from earlier work.
In assay [3] the test system is thymocytes (T-cell proliferation). The assay is described as follows: comitogen-induced thymocyte proliferation procedure (LAF). Type of assay: cell-based, BALB/c mice. The settings on record: Mus musculus; for IC50: Thymocyte, read-out: LAF IC50; for inhibition at 0.1 µM: T-cell, read-out: LAF % Inhib. (percent inhibition of T-cell proliferation). Here is the method:
(§1) Immunosuppressive activity for representative compounds of this invention was evaluated in an in vitro standard pharmacological test procedure to measure lymphocyte proliferation (LAF) and in an in vivo standard pharmacological test procedure which evaluated the survival time of a pinch skin graft.
The comitogen-induced thymocyte proliferation procedure (LAF) was used as an in vitro measure of the immunosuppressive effects of representative compounds. Briefly, cells from the thymus of normal BALB/c mice are cultured for 72 hours with PHA and IL-1 and pulsed with tritiated thymidine during the last six hours. Cells are cultured with and without various concentrations of rapamycin, cyclosporin A, or test compound. Cells are harvested and incorporated radioactivity is determined. Inhibition of lymphoproliferation is assessed as percent change in counts per minute from non-drug treated controls. For each compound evaluated, rapamycin was also evaluated for the purpose of comparison. An IC50 was obtained for each test compound as well as for rapamycin.

Assay [4] deals with pinch skin graft from male BAB/c donors transplanted to male C3 H(H-2K) recipients. The assay is described as follows: survival time of a pinch skin graft. Type of assay: in vivo, male C3 H(H-2K) recipients (mouse strain). The following applies: dose of 4 mg/kg, intraperitoneally or orally; untreated control usually rejected within 6-7 days. Here is the method: as §1
Representative compounds of this invention were also evaluated in an in vivo test procedure designed to determine the survival time of pinch skin graft from male BAB/c donors transplanted to male C3 H(H-2K) recipients. The method is adapted from Billingham R. E. and Medawar P. B., J. Exp. Biol. 28:385-402, (1951). Briefly, a pinch skin graft from the donor was grafted on the dorsum of the recipient as a allograft, and an isograft was used as control in the same region. The recipients were treated with either varying concentrations of test compounds intraperitoneally or orally. Rapamycin was used as a test control. Untreated recipients serve as rejection control. The graft was monitored daily and observations were recorded until the graft became dry and formed a blackened scab. This was considered as the rejection day. The mean graft survival time (number of days±S.D.) of the drug treatment group was compared with the control group. […] Results are expressed as the mean survival time in days. Untreated (control) pinch skin grafts are usually rejected within 6-7 days. The results shown in Table 1 are based on a dose of 4 mg/kg of test compound. A survival time of 12.0±1.7 days was obtained for rapamycin at 4 mg/kg.

Setting [5] is: thymus cells cultured 72 h with PHA and IL-1, tritiated thymidine during last six hours.

Structures can show the parent of a compound that is named as a salt. Where two headings read alike, the source gives them in different places.

In the case of `CO[C@H]1C[C@@H]2CC[C@@H](C)[C@@](O)(O2)C(=O)C(=O)N2CCCC[C@H]2C(=O)O[C@H]([C@H](C)C[C@@H]2CC[C@@H](O)[C@H](OC)C2)CC(=O)[C@H](C)/C=C(\C)[C@@H](O)[C@@H](OC)C(=O)[C@H](C)C[C@H](C)/C=C/C=C/C=C/1C` [rapamycin], the “antifungal activity, particularly against Candida albicans” value in the assay with Candida albicans was “found to have antifungal activity, particularly against Candida albicans, both in vitro and in vivo”. In addition, in assay [1], the antitumor activity entry is recorded as “has been shown to have antitumor activity”. Also, in the assay on IgE-like antibodies, the “inhibition of the formation of IgE-like antibodies” value is “effectively inhibited the formation of IgE-like antibodies”. Further, the “effect in the experimental allergic encephalomyelitis model” value in assay [2] was “effective in the experimental allergic encephalomyelitis model”. The IC50 in assay [3] is 0.4 to 9.8 nM. In assay [4], the “Skin Graft mean survival time (days ± SD)” value amounted to 12.0 ± 1.7 days.

Take `CCOC(C)O[C@@H]1CC[C@@H](C[C@@H](C)[C@@H]2C/C(=N/OC)[C@H](C)/C=C(\C)[C@@H](O)[C@@H](OC)C(=O)[C@H](C)C[C@H](C)/C=C/C=C/C=C(\C)[C@@H](OC)C[C@@H]3CC[C@@H](C)[C@@](O)(O3)C(=O)C(=O)N3CCCC[C@H]3C(=O)O2)C[C@H]1OC` (stereo partly drawn) [Example 16, 42-O-(1-Ethoxy-ethyl)-rapamycin-(Z)-27-O-(methyl)oxime]: in assay [3], the inhibition at 0.1 µM was 47%. Further, in assay [3] (setting [5]), the IC50 worked out at 100 nM.

For the compound `CO[C@H]1C[C@@H]2CC[C@@H](C)[C@@](O)(O2)C(=O)C(=O)N2CCCC[C@H]2C(=O)O[C@H]([C@H](C)C[C@@H]2CC[C@@H](OC(=O)NCCO)[C@H](OC)C2)CC(=NO)[C@H](C)/C=C(\C)[C@@H](O)[C@@H](OC)C(=O)[C@H](C)C[C@H](C)/C=C/C=C/C=C/1C` [Example 4, Rapamycin 27-oxime, 42-ester with 2-hydroxyethyl carbamic acid], the inhibition at 0.1 µM in assay [3] is 89%. Also, the IC50 in assay [3] (setting [5]) was 17.8 nM.

As to `CCCCNC(=O)O[C@@H]1CC[C@@H](C[C@@H](C)[C@@H]2C/C(=N/OC)[C@H](C)/C=C(\C)[C@@H](O)[C@@H](OC)C(=O)[C@H](C)C[C@H](C)/C=C/C=C/C=C(\C)[C@@H](OC)C[C@@H]3CC[C@@H](C)[C@@](O)(O3)C(=O)C(=O)N3CCCC[C@H]3C(=O)O2)C[C@H]1OC` [Example 18, Rapamycin (Z)-27-O-(methyl)oxime-42-ester with butylcarbamic acid], the inhibition at 0.1 µM in assay [3] stood at 18%. The IC50 in assay [3] (setting [5]) amounted to 279 nM.

Consider `CO[C@H]1C[C@@H]2CC[C@@H](C)[C@@](O)(O2)C(=O)C(=O)N2CCCC[C@H]2C(=O)O[C@H]([C@H](C)C[C@@H]2CC[C@@H](OS(=O)(=O)c3cccc4cccnc34)[C@H](OC)C2)CC(=NO)[C@H](C)/C=C(\C)[C@@H](O)[C@@H](OC)C(=O)[C@H](C)C[C@H](C)/C=C/C=C/C=C/1C` [Example 10, Rapamycin 27-oxime, 42-ester with 8-quinolinesulfonic acid], for which the inhibition at 0.1 µM in assay [3] turned out to be 20%. Besides, the IC50 in assay [3] (setting [5]) was 300 nM.

As to `CCOC(C)O[C@@H]1CC[C@@H](C[C@@H](C)[C@@H]2C/C(=N\OC)[C@H](C)/C=C(\C)[C@@H](O)[C@@H](OC)C(=O)[C@H](C)C[C@H](C)/C=C/C=C/C=C(\C)[C@@H](OC)C[C@@H]3CC[C@@H](C)[C@@](O)(O3)C(=O)C(=O)N3CCCC[C@H]3C(=O)O2)C[C@H]1OC` (stereo partly drawn) [Example 17, 42-O-(1-Ethoxy-ethyl)-rapamycin-(E)-27-O-(methyl)oxime], the inhibition at 0.1 µM in assay [3] was 73%. The IC50 in assay [3] (setting [5]) was 30 nM. The “Skin Graft mean survival time (days ± SD)” value in assay [4] is recorded as 7.8 ± 0.4 days.

For the compound `CO/N=C1/C[C@@H]([C@H](C)C[C@@H]2CC[C@@H](OC(=O)Nc3ccc([N+](=O)[O-])cc3)[C@H](OC)C2)OC(=O)[C@@H]2CCCCN2C(=O)C(=O)[C@]2(O)O[C@@H](CC[C@H]2C)C[C@H](OC)/C(C)=C/C=C/C=C/[C@@H](C)C[C@@H](C)C(=O)[C@H](OC)[C@H](O)/C(C)=C/[C@H]1C` [Example 13, Rapamycin (Z)-27-O-(methyl)oxime, 42-ester with 4-nitrophenylcarbamic acid], in assay [3], the inhibition at 0.1 µM worked out at 14%. The IC50 in assay [3] (setting [5]) was 580 nM.

For the compound `CO[C@H]1C[C@@H]2CC[C@@H](C)[C@@](O)(O2)C(=O)C(=O)N2CCCC[C@H]2C(=O)O[C@H]([C@H](C)C[C@@H]2CC[C@@H](OC(N)=O)[C@H](OC)C2)CC(=NO)[C@H](C)/C=C(\C)[C@@H](O)[C@@H](OC)C(=O)[C@H](C)C[C@H](C)/C=C/C=C/C=C/1C` [Example 8, Rapamycin 27-oxime, 42-ester with carbamic acid], the inhibition at 0.1 µM in assay [3] stood at 87%. For the same compound, the IC50 in assay [3] (setting [5]) amounted to 13.9 nM. Moreover, the “Skin Graft mean survival time (days ± SD)” value in assay [4] is given as 7.0 ± 0.0 days.

Turning to `CO/N=C1/C[C@@H]([C@H](C)C[C@@H]2CC[C@@H](OS(=O)(=O)c3cccc4cccnc34)[C@H](OC)C2)OC(=O)[C@@H]2CCCCN2C(=O)C(=O)[C@]2(O)O[C@@H](CC[C@H]2C)C[C@H](OC)/C(C)=C/C=C/C=C/[C@@H](C)C[C@@H](C)C(=O)[C@H](OC)[C@H](O)/C(C)=C/[C@H]1C` [Example 12, Rapamycin (Z)-27-O-(methyl)oxime, 42-ester with 8-quinolinesulfonic acid], the inhibition at 0.1 µM in assay [3] came out at 30%. In assay [3] (setting [5]), the IC50 came out at 210 nM.

Take `CO[C@H]1C[C@@H]2CC[C@@H](C)[C@@](O)(O2)C(=O)C(=O)N2CCCC[C@H]2C(=O)O[C@H]([C@H](C)C[C@@H]2CC[C@@H](OS(=O)(=O)O)[C@H](OC)C2)CC(=NO)[C@H](C)/C=C(\C)[C@@H](O)[C@@H](OC)C(=O)[C@H](C)C[C@H](C)/C=C/C=C/C=C/1C` [Example 6, Rapamycin 27-oxime, 42-sulfate ester pyridine salt]: in assay [3], the inhibition at 0.1 µM is 71%. Also, the “Skin Graft mean survival time (days ± SD)” value in assay [4] is recorded as 9.8 ± 0.4 days.

As to `CO[C@H]1C[C@@H]2CC[C@@H](C)[C@@](O)(O2)C(=O)C(=O)N2CCCC[C@H]2C(=O)O[C@H]([C@H](C)C[C@@H]2CC[C@@H](OC(=O)NCCc3ccccn3)[C@H](OC)C2)CC(=NO)[C@H](C)/C=C(\C)[C@@H](O)[C@@H](OC)C(=O)[C@H](C)C[C@H](C)/C=C/C=C/C=C/1C` [Example 2, Rapamycin 27-oxime, 42-ester with 2-(pyridin-2-yl)-ethyl-carbamic acid], in assay [3], the inhibition at 0.1 µM was 94%. The IC50 in assay [3] (setting [5]) stood at 0.6 nM. Moreover, the “Skin Graft mean survival time (days ± SD)” value in assay [4] was 8.0 ± 0.6 days.

For `CO/N=C1\C[C@@H]([C@H](C)C[C@@H]2CC[C@@H](OS(=O)(=O)c3cccc4cccnc34)[C@H](OC)C2)OC(=O)[C@@H]2CCCCN2C(=O)C(=O)[C@]2(O)O[C@@H](CC[C@H]2C)C[C@H](OC)/C(C)=C/C=C/C=C/[C@@H](C)C[C@@H](C)C(=O)[C@H](OC)[C@H](O)/C(C)=C/[C@H]1C` [Example 11, Rapamycin (E)-27-O-(methyl)oxime, 42-ester with 8-quinolinesulfonic acid], the inhibition at 0.1 µM in assay [3] is 17%. Moreover, the IC50 in assay [3] (setting [5]) stood at 255 nM.

On to `CO/N=C1/C[C@@H]([C@H](C)C[C@@H]2CC[C@@H](OS(=O)(=O)c3ccc(C)cc3)[C@H](OC)C2)OC(=O)[C@@H]2CCCCN2C(=O)C(=O)[C@]2(O)O[C@@H](CC[C@H]2C)C[C@H](OC)/C(C)=C/C=C/C=C/[C@@H](C)C[C@@H](C)C(=O)[C@H](OC)[C@H](O)/C(C)=C/[C@H]1C` [Example 14, Rapamycin (Z)-27-O-(methyl)oxime, 42-ester with 4-methylbenzenesulfonic acid], for which, in assay [3], the inhibition at 0.1 µM was 20%. Further, the IC50 in assay [3] (setting [5]) is greater than 1000 nM.

Usually IC50 stands for the midpoint of a concentration-inhibition curve.

The record behind these values is patent publication US5378836A, “Rapamycin oximes and hydrazones” (American Home Products Corporation, priority 1993, dated 1995).
